The source of these data is PubChem BioAssay AID1259407 (Chemical Carcinogenesis Research Information System (CCRIS), 2018).

This data set relates to CCRIS mutagenicity, Ames/micronucleus/aberration tests. In words: CCRIS mutagenicity studies.
Setting [1] is: Test System: AMES SALMONELLA TYPHIMURIUM, Strain/Indicator: TA97, Metabolic Activation: NONE, Method: PREINCUBATION
Setting [2] is: Test System: AMES SALMONELLA TYPHIMURIUM, Strain/Indicator: TA98, Metabolic Activation: NONE, Method: PREINCUBATION
Where [3] appears, read: Test System: AMES SALMONELLA TYPHIMURIUM, Strain/Indicator: TA100, Metabolic Activation: NONE, Method: PREINCUBATION
[4] abbreviates: Test System: AMES SALMONELLA TYPHIMURIUM, Strain/Indicator: TA100, Metabolic Activation: NONE, Method: STANDARD PLATE.

Each structure is given as a SMILES string. The source made the active and inactive calls. The rule behind the calls is not given here.

Take `Oc1ccc2ccccc2c1N=Nc1ccccc1`: the mutagenic call runs as follows: (End Point: IN VITRO CHROMOSOMAL ABERRATIONS, Test System: CHO CELLS, Metabolic Activation: NONE) “inactive; negative”; (End Point: IN VITRO CHROMOSOMAL ABERRATIONS, Test System: CHO CELLS, Metabolic Activation: RAT, LIVER, S-9, AROCLOR 1254) “inactive; negative”; (Test System: AMES SALMONELLA TYPHIMURIUM, Strain/Indicator: TA97, Metabolic Activation: HAMSTER, LIVER, S-9, AROCLOR 1254 (10%), Method: PREINCUBATION) “inactive; negative”; under setting [1], “inactive; negative”; (Test System: AMES SALMONELLA TYPHIMURIUM, Strain/Indicator: TA97, Metabolic Activation: RAT, LIVER, S-9, AROCLOR 1254 (10%), Method: PREINCUBATION) “active; positive”; (Test System: AMES SALMONELLA TYPHIMURIUM, Strain/Indicator: TA98, Metabolic Activation: HAMSTER, LIVER, S-9, AROCLOR 1254 (10%), Method: PREINCUBATION) “inactive; negative”. Also, the mutagenic call was “inactive; negative” under setting [2]; “inactive; negative” (Test System: AMES SALMONELLA TYPHIMURIUM, Strain/Indicator: TA98, Metabolic Activation: RAT, BLADDER, S-9, PCB, Method: FLUCTUATION TEST); “active; positive” (Test System: AMES SALMONELLA TYPHIMURIUM, Strain/Indicator: TA98, Metabolic Activation: RAT, LIVER, S-9, AROCLOR 1254 (10%), Method: PREINCUBATION); “inactive; negative” (Test System: AMES SALMONELLA TYPHIMURIUM, Strain/Indicator: TA100, Metabolic Activation: HAMSTER, LIVER, S-9, AROCLOR 1254 (10%), Method: PREINCUBATION); “inactive; negative” under setting [3]; “inactive; negative” (Test System: AMES SALMONELLA TYPHIMURIUM, Strain/Indicator: TA100, Metabolic Activation: RAT, BLADDER, S-9, PCB, Method: FLUCTUATION TEST). Also, the mutagenic call (Test System: AMES SALMONELLA TYPHIMURIUM, Strain/Indicator: TA100, Metabolic Activation: RAT, LIVER, S-9, AROCLOR 1254 (10%), Method: PREINCUBATION) was “inactive; negative”; the mutagenic call (Test System: AMES SALMONELLA TYPHIMURIUM, Strain/Indicator: TA1535, Metabolic Activation: HAMSTER, LIVER, S-9, AROCLOR 1254 (10%), Method: PREINCUBATION) is “inactive; negative”; the mutagenic call (Test System: AMES SALMONELLA TYPHIMURIUM, Strain/Indicator: TA1535, Metabolic Activation: NONE, Method: PREINCUBATION) was “inactive; negative”; the mutagenic call (Test System: AMES SALMONELLA TYPHIMURIUM, Strain/Indicator: TA1535, Metabolic Activation: RAT, LIVER, S-9, AROCLOR 1254 (10%), Method: PREINCUBATION) is “inactive; negative”; the mutagenic call (Test System: AMES SALMONELLA TYPHIMURIUM, Strain/Indicator: TA1538, Metabolic Activation: HAMSTER, LIVER, S-9, AROCLOR 1254, Method: STANDARD PLATE) is “active; positive”.
As for `COc1ccc2cc([C@H](C)C(=O)O)ccc2c1`, the mutagenic call runs as follows: (Test System: AMES SALMONELLA TYPHIMURIUM, Strain/Indicator: TA97A, Metabolic Activation: NONE, Method: STANDARD PLATE) “inactive; negative”; (Test System: AMES SALMONELLA TYPHIMURIUM, Strain/Indicator: TA97A, Metabolic Activation: RAT, LIVER, S-9, PHENOBARBITAL, Method: STANDARD PLATE) “inactive; negative”; (Test System: AMES SALMONELLA TYPHIMURIUM, Strain/Indicator: TA98, Metabolic Activation: GUINEA PIG, LIVER, S-9, PCB, Method: PREINCUBATION) “inactive; negative”; (Test System: AMES SALMONELLA TYPHIMURIUM, Strain/Indicator: TA98, Metabolic Activation: HAMSTER, LIVER, S-9, PCB, Method: PREINCUBATION) “inactive; negative”; (Test System: AMES SALMONELLA TYPHIMURIUM, Strain/Indicator: TA98, Metabolic Activation: MOUSE, LIVER, S-9, PCB, Method: PREINCUBATION) “inactive; negative”; under setting [2], “inactive; negative”. Moreover, the mutagenic call reads like this: (Test System: AMES SALMONELLA TYPHIMURIUM, Strain/Indicator: TA98, Metabolic Activation: RAT, LIVER, S-9, PCB, Method: PREINCUBATION) “inactive; negative”; (Test System: AMES SALMONELLA TYPHIMURIUM, Strain/Indicator: TA98, Metabolic Activation: RAT, LIVER, S-9, PCB, Method: STANDARD PLATE) “inactive; negative”; (Test System: AMES SALMONELLA TYPHIMURIUM, Strain/Indicator: TA100, Metabolic Activation: GUINEA PIG, LIVER, S-9, PCB, Method: PREINCUBATION) “inactive; negative”; (Test System: AMES SALMONELLA TYPHIMURIUM, Strain/Indicator: TA100, Metabolic Activation: HAMSTER, LIVER, S-9, PCB, Method: PREINCUBATION) “inactive; negative”; (Test System: AMES SALMONELLA TYPHIMURIUM, Strain/Indicator: TA100, Metabolic Activation: MOUSE, LIVER, S-9, PCB, Method: PREINCUBATION) “inactive; negative”; under setting [3], “inactive; negative”. Besides, the mutagenic call was “inactive; negative” under setting [4]; “inactive; negative” (Test System: AMES SALMONELLA TYPHIMURIUM, Strain/Indicator: TA100, Metabolic Activation: RAT, LIVER, S-9, PCB, Method: PREINCUBATION); “inactive; negative” (Test System: AMES SALMONELLA TYPHIMURIUM, Strain/Indicator: TA100, Metabolic Activation: RAT, LIVER, S-9, PCB, Method: STANDARD PLATE); “inactive; negative” (Test System: AMES SALMONELLA TYPHIMURIUM, Strain/Indicator: TA100, Metabolic Activation: RAT, LIVER, S-9, PHENOBARBITAL, Method: STANDARD PLATE); “inactive; negative” (Test System: AMES SALMONELLA TYPHIMURIUM, Strain/Indicator: TA102, Metabolic Activation: NONE, Method: STANDARD PLATE); “inactive; negative” (Test System: AMES SALMONELLA TYPHIMURIUM, Strain/Indicator: TA102, Metabolic Activation: RAT, LIVER, S-9, PHENOBARBITAL, Method: STANDARD PLATE). For the same compound, the mutagenic call is “inactive; negative” (Test System: AMES SALMONELLA TYPHIMURIUM, Strain/Indicator: TA1537, Metabolic Activation: RAT, LIVER, S-9, PCB, Method: STANDARD PLATE); “inactive; negative” (Test System: AMES SALMONELLA TYPHIMURIUM, Strain/Indicator: TA1538, Metabolic Activation: RAT, LIVER, S-9, PCB, Method: STANDARD PLATE); “inactive; negative” (Test System: E. COLI, Strain/Indicator: WP2 UVRA, Metabolic Activation: RAT, LIVER, S-9, PCB, Method: STANDARD PLATE).
Regarding `O=P(O)(O)OC(CO)CO`, the mutagenic call by setting is: under setting [1], “inactive; negative”; (Test System: AMES SALMONELLA TYPHIMURIUM, Strain/Indicator: TA97, Metabolic Activation: RAT, LIVER, S-9, AROCLOR 1254, Method: PREINCUBATION) “inactive; negative”; (Test System: AMES SALMONELLA TYPHIMURIUM, Strain/Indicator: TA102, Metabolic Activation: NONE, Method: PREINCUBATION) “inactive; negative”; (Test System: AMES SALMONELLA TYPHIMURIUM, Strain/Indicator: TA102, Metabolic Activation: RAT, LIVER, S-9, AROCLOR 1254, Method: PREINCUBATION) “inactive; negative”.
As for `C1=CC23CCCC2(C=C1)O3` (stereo not given), the mutagenic call was “inactive; negative” (Test System: AMES SALMONELLA TYPHIMURIUM, Strain/Indicator: TA98, Metabolic Activation: NONE, Method: STANDARD PLATE); “active; positive” under setting [4]; “active; positive” (Test System: AMES SALMONELLA TYPHIMURIUM, Strain/Indicator: TM677/8-AZAGUANINE, Metabolic Activation: NONE, Method: STANDARD PLATE).
